From patent US8133910B2, “Thiophene derivatives as S1P1/EDGE1 receptor agonists” (Actelion Pharmaceuticals Ltd., priority 2006, dated 2012)

Assays:
[1] = target: recombinant human S1P1 receptor (Homo sapiens, UniProt P21453); assay: GTPγS assay to determine EC50 values; assay type: biochemical; conditions: 35S-GTPγS binding, membrane preparations of CHO cells expressing recombinant human S1P1 receptor, pH 7.4
Method: GTPγS binding assays are performed in 96 well microtiter plates (Nunc, 442587) in a final volume of 200 μl, using membrane preparations of CHO cells expressing recombinant human S1P1 receptor. Assay conditions are 20 mM Hepes (Fluka, 54461), 100 mM NaCl (Fluka, 71378), 5 mM MgCl2 (Fluka, 63064), 0.1% BSA (Calbiochem, 126609), 1 μM GDP (Sigma, G-7127), 2.5% DMSO (Fluka, 41644), 50 pM ^35S-GTPγS (Amersham Biosciences, SJ1320). The pH is 7.4. Test compounds are dissolved and diluted in 100% DMSO and pre-incubated at room temperature for 30 min in 150 μl of the above assay buffer, in the absence of ^35S-GTPγS. After addition of 50 μl of ^35S-GTPγS, the assay is incubated for 1 h at rt. The assay is terminated by transfer of the reaction mixture to a Multiscreen plate (Millipore, MAHFC1H60) using a cell harvester from Packard Biosciences, and the plates are washed with ice-cold 10 mM Na2HPO4/NaH2PO4 (70%/30%), dried, sealed at the bottom and, after addition of 25 μl MicroScint20 (Packard Biosciences, order #6013621), sealed on the top. Membrane-bound ^35S-GTPγS is measured with a TopCount from Packard Biosciences.
EC50 is the concentration of agonist inducing 50% of the maximal specific ^35S-GTPγS binding. Specific binding is determined by subtracting non-specific binding from maximal binding. Maximal binding is the amount of cpm bound to the
Multiscreen plate in the presence of 10 μM of S1P. Non-specific binding is the amount of binding in the absence of an agonist in the assay.

circulating lymphocytes = assay: Assessment of in vivo efficacy: circulating lymphocytes after oral administration; conditions: 6 h after oral administration of 10 mg/kg to normotensive male Wistar rats, as compared to vehicle group; mean±SEM
Method: The efficacy of the compounds of Formula (I) is assessed by measuring the circulating lymphocytes after oral administration of 3 to 30 mg/kg of a compound of Formula (I) to normotensive male Wistar rats. The animals are housed in climate-controlled conditions with a 12 h-light/dark cycle, and have free access to normal rat chow and drinking water. Blood is collected before and 3, 6 and 24 h after drug administration. Full blood is subjected to hematology using Advia Hematology system (Bayer Diagnostics, Zürich, Switzerland).
All data are presented as mean±SEM. Statistical analyses are performed by analysis of variance (ANOVA) using Statistica (StatSoft) and the Student-Newman-Keuls procedure for multiple comparisons. The null hypothesis is rejected when p<0.05.

Chain of recombinant human S1P1 receptor (P21453 whole entry): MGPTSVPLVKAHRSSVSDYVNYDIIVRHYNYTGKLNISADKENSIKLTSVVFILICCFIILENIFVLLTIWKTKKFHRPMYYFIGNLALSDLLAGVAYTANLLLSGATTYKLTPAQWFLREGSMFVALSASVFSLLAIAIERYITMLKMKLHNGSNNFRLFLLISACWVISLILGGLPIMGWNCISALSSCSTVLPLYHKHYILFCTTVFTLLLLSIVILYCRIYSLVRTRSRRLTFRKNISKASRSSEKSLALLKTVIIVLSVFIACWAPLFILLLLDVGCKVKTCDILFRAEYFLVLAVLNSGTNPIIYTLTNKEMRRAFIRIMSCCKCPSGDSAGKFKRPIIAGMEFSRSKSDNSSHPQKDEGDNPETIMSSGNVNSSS

Structure (SMILES)	EC50 [1] [nM]	Lymphocyte counts (circulating lymphocytes) [%]
Cc1cc(-c2noc(-c3ccc(CC(C)C)s3)n2)cc(C)c1OCC(O)CNC(=O)CO (stereo not drawn) [Example 16]	2.6	
CCCc1ccc(-c2nc(-c3cc(C)c(OC[C@H](O)CNC(=O)CO)c(C)c3)no2)s1 [Example 17, (2R)—N-(3-{2,6-Dimethyl-4-[5-(5-propyl-thiophen-2-yl)-[1,2,4]oxadiazol-3-yl]-phenoxy}-2-hydroxy-propyl)-2-hydroxy-acetamide]	0.6	−59. ± 4
Cc1cc(-c2nnc(-c3ccc(CC(C)C)s3)o2)cc(C)c1OCC(O)CNC(=O)CO (stereo not drawn) [Example 22, 2-hydroxy-N-(2-hydroxy-3-{4-[5-(5-isobutyl-thiophen-2-yl)-[1,3,4]oxadiazol-2-yl]-2,6-dimethyl-phenoxy}-propyl)-acetamide]	2.8	
CCCc1ccc(-c2nc(-c3cc(C)c(OC[C@@H](O)CNC(=O)CO)c(CC)c3)no2)s1 [Example 28, (2S)—N-(3-{2-Ethyl-6-methyl-4-[5-(5-propyl-thiophen-2-yl)-[1,2,4]oxadiazol-3-yl]-phenoxy}-2-hydroxy-propyl)-2-hydroxy-acetamide]	2.4	
Cc1cc(-c2nnc(-c3ccc(CC(C)C)s3)o2)cc(C)c1OC[C@@H](O)CNC(=O)CO [Example 31, 2-hydroxy-N-((2S)-2-hydroxy-3-{4-[5-(5-isobutyl-thiophen-2-yl)-[1,3,4]oxadiazol-2-yl]-2,6-dimethyl-phenoxy}-propyl)-acetamide]	3.3	
CCc1cc(-c2nnc(-c3ccc(CC(C)C)s3)o2)cc(C)c1OC[C@@H](O)CNC(=O)CO [Example 37, N-((2S)-3-{2-Ethyl-6-methyl-4-[5-(5-isobutyl-thiophen-2-yl)-[1,3,4]oxadiazol-2-yl]-phenoxy}-2-hydroxy-propyl)-2-hydroxy-acetamide]		−67 ± 3
CCc1cc(-c2nnc(-c3cc(C)c(CC(C)C)s3)o2)cc(C)c1OC[C@@H](O)CO [Example 40, (2S)-3-{2-Ethyl-4-[5-(5-isobutyl-4-methyl-thiophen-2-yl)-[1,3,4]oxadiazol-2-yl]-6-methyl-phenoxy}-propane-1,2-diol]		−58 ± 3
CCc1cc(-c2nnc(-c3cc(C)c(CC(C)C)s3)o2)cc(C)c1OC[C@@H](O)CNC(=O)CO [Example 42, N-((2S)-3-{2-Ethyl-4-[5-(5-isobutyl-4-methyl-thiophen-2-yl)-[1,3,4]oxadiazol-2-yl]-6-methyl-phenoxy}-2-hydroxy-propyl)-2-hydroxy-acetamide]	0.6	
